By IC50 is commonly meant the midpoint of a concentration-inhibition curve.

One assay has as its target T1, recombinant autotaxin (Homo sapiens, UniProt Q13822).
T1 construct: made in house; host or cells: Hi5 insect cells (baculovirus)
As to the kind of experiment: Autotaxin test (enzyme test), Amplex Red fluorescence. In kind it is biochemical. The following applies: IC50 ranges; LPC 75 μM; read-out: Autotaxin inhibition IC50. How it is done: The autotaxin activity is measured indirectly using Amplex Red reagent. Amplex Red is measured here as fluorogenic indicator for the H2O2 formed. In detail, autotaxin converts the substrate lysophosphatidylcholine (LPC) into phosphocholine and lysophosphatidylic acid (LPA). After this reaction, the phosphocholine is reacted with alkaline phosphatase to give inorganic phosphate and choline. In the next step, choline is oxidised by choline oxidase to give betaine, with formation of H2O2. H2O2 reacts with Amplex Red reagent in the presence of peroxidase (horseradish peroxidase) in a 1:1 stoichiometry and forms the highly fluorescent resorufin. The fluorescence is measured in a reaction-dependent kinetic mode in order that fluorescent signals from possible other fluorescent substances which are not involved in the reaction can be corrected out.
1.5 μl of a standard solution or of the test substances (compounds of the invention) in individual concentrations dissolved in 20 mM Hepes pH 7.2 with a maximum of 7.7% of DMSO are pre-incubated together with 10 μl (16 ng) of highly purified recombinant autotaxin in a black microtitre plate provided with 384 wells at 22° C. for 30 min. The reaction is then initiated by addition of 5 μl of L-α-lysophosphatidylcholine (LPC), where the final concentration of LPC is 75 μM. The mixture is incubated at 37° C. for 90 min. After the incubation, Amplex Red reagent, peroxidase (horseradish peroxidase) and choline oxidase is added, and the fluorescence is immediately measured at 612 nm with excitation of 485 nm in a “Tecan Ultra multimode” reader. The activity of autotaxin is calculated indirectly via detection of the H2O2 formed.
• Microtitre plate: PS microplate, 384 wells, small volume, black Corning, Cat#3677 • Protein: recombinant autotaxin (Baculovirale Hi5 Expression) • Substrate: L-a-lysophosphatidylcholine (chicken egg)); Avanti Polar Lipids #830071 P • Standard: C14 LPA, Avanti Polar Lipids, Cat#857120P • Detection reagent: Amplex Red reagent; Invitrogen #A12222; dissolved in 1.923 ml of DMSO peroxidase type VI-A (horseradish) from Sigma #P6782; dissolved in 7.45 ml of test buffer, choline oxidase; Sigma #C5896; dissolved in 2.47 ml of test buffer • Detection reagent mix: 1:100 dilution of Amplex Red Reagenzt in test buffer • Test buffer: 200 mM Tris HCl, Merck, Cat #1.08219, pH 7.9, 0.1% BSA, lipid-free, Roche Cat#775835 Pharmacological Data Autotaxin Inhibition
As to `COc1ccc(Nc2c3c(nc4ccccc24)CCN(CC(=O)Nc2cc(Cl)ccc2OC)C3)cc1` [Compound 24, N-(5-Chloro-2-methoxyphenyl)-2-[10-(4-methoxy-phenylamino)-3,4-dihydro-1H-benzo[b]-1,6-naphthyridin-2-yl]acetamide], the IC50 is more than 1000 nM.

For `COc1ccc(Cl)cc1NC(=O)CN1CCc2nc3ccccc3c(NCC(=O)N3CCN(C(C)C)CC3)c2C1` [Compound 17, N-(5-Chloro-2-methoxyphenyl)-2-{10-[2-(4-isopropyl-piperazin-1-yl)-2-oxoethylamino]-3,4-dihydro-1H-benzo-[b]-1,6-naphthyridin-2-yl}acetamide], the IC50 fell in the range of 100 to 1000 nM. Take `COc1ccc(Cl)cc1NC(=O)CN1CCc2nc3ccccc3c(NCC(=O)N3CCN(C)CC3)c2C1` [Compound 16, N-(5-Chloro-2-methoxyphenyl)-2-{10-[2-(4-methyl-piperazin-1-yl)-2-oxoethylamino]-3,4-dihydro-1H-benzo-[b]-1,6-naphthyridin-2-yl}acetamide]: the IC50 lay within 100 to 1000 nM. On the same count and under the same terms, for `COc1ccc(Cl)cc1NC(=O)CN1CCc2nc3ccccc3c(NCC(=O)N3CCCC3)c2C1` [Compound 12, N-(5-Chloro-2-methoxyphenyl)-2-[10-(2-oxo-2-pyrrolidin-1-ylethylamino)-3,4-dihydro-1H-benzo[b]-1,6-naphthyridin-2-yl]acetamide] the value was 100 to 1000 nM; for `COc1ccc(Cl)cc1NC(=O)CN1CCc2nc3ccccc3c(N3CCN(CCO)CC3)c2C1` [Compound 10, N-(5-Chloro-2-methoxyphenyl)-2-{10-[4-(2-hydroxyethyl)-piperazin-1-yl]-3,4-dihydro-1H-benzo[b]-1,6-naphthyridin-2-yl}acetamide], 100 to 1000 nM. On the same count and under the same terms, for `COc1ccc(Cl)cc1NC(=O)CN1CCc2nc3ccccc3c(NCC(=O)N3CCCCC3)c2C1` [Compound 13, N-(5-Chloro-2-methoxyphenyl)-2-[10-(2-oxo-2-piperidin-1-ylethylamino)-3,4-dihydro-1H-benzo[b]-1,6-naphthyridin-2-yl]acetamide] the value was 100 to 1000 nM; for `COc1ccc(Cl)cc1NC(=O)CN1CCc2nc3ccccc3c(NCC(=O)N(C)C)c2C1` [Compound 9, N-(5-Chloro-2-methoxyphenyl)-2-[10-(dimethyl-carbamoylmethylamino)-3,4-dihydro-1H-benzo[b]-1,6-naphthyridin-2-yl]acetamide], 100 to 1000 nM; for `COc1ccc(Cl)cc1NC(=O)CN1CCc2nc3ccccc3c(Nc3cccnc3)c2C1` [Compound 21, N-(5-Chloro-2-methoxyphenyl)-2-[10-(pyridin-3-ylamino)-3,4-dihydro-1H-benzo[b]-1,6-naphthyridin-2-yl]acetamide], more than 1000 nM.

For `COc1ccc(Cl)cc1NC(=O)CN1CCc2nc3ccccc3c(Nc3ccccc3)c2C1` [Compound 22, N-(5-Chloro-2-methoxyphenyl)-2-(10-phenylamino-3,4-dihydro-1H-benzo[b]-1,6-naphthyridin-2-yl)acetamide], the IC50 is more than 1000 nM. On to `CNC(=O)CNc1c2c(nc3ccccc13)CCN(CC(=O)Nc1cc(Cl)ccc1OC)C2` [Compound 8, N-(5-Chloro-2-methoxyphenyl)-2-[10-(methyl-carbamoylmethylamino)-3,4-dihydro-1H-benzo[b]-1,6-naphthyridin-2-yl]acetamide], for which the IC50 is 100 to 1000 nM. On the same count and under the same terms, the same measure for `COc1ccc(Cl)cc1NC(=O)CN1CCc2nc3ccccc3c(NCC(=O)N3CCN(Cc4ccccc4)CC3)c2C1` [Compound 19, 2-{10-[2-(4-Benzylpiperazin-1-yl)-2-oxoethylamino]-3,4-dihydro-1H-benzo[b]-1,6-naphthyridin-2-yl}-N-(5-chloro-2-methoxyphenyl)acetamide]: 100 to 1000 nM. On the same count and under the same terms, for `CCN(CC)C(=O)CNc1c2c(nc3ccccc13)CCN(CC(=O)Nc1cc(Cl)ccc1OC)C2` [Compound 18, N-(5-Chloro-2-methoxyphenyl)-2-[10-(diethyl-carbamoylmethylamino)-3,4-dihydro-1H-benzo[b]-1,6-naphthyridin-2-yl]acetamide] the value was 100 to 1000 nM.

In the case of `COc1ccc(Cl)cc1NC(=O)CN1CCc2nc3ccccc3c(NC3CCN(C)CC3)c2C1` [Compound 1, N-(5-Chloro-2-methoxyphenyl)-2-[10-(1-methylpiperidin-4-ylamino)-3,4-dihydro-1H-benzo[b]-1,6-naphthyridin-2-yl]acetamide], the IC50 lay within 100 to 1000 nM.

In the case of `COc1ccc(Cl)cc1NC(=O)CN1CCc2nc3ccccc3c(Nc3ccncc3)c2C1` [Compound 20, N-(5-Chloro-2-methoxyphenyl)-2-[10-(pyridin-4-ylamino)-3,4-dihydro-1H-benzo[b]-1,6-naphthyridin-2-yl]acetamide], the IC50 is more than 1000 nM. Same read-out and setting: the same measure for `COc1ccc(Cl)cc1NC(=O)CN1CCc2nc3ccccc3c(NCc3nc4ccccc4[nH]3)c2C1` [Compound 11, 2-{10-[(1H-Benzimidazol-2-ylmethyl)amino]-3,4-dihydro-1H-benzo[b]-1,6-naphthyridin-2-yl}-N-(5-chloro-2-methoxyphenyl)acetamide]: more than 1000 nM. The same measure, in the same setting: for `COc1ccc(Cl)cc1NC(=O)CN1CCc2nc3ccccc3c(NCC(=O)N3CCOCC3)c2C1` [Compound 14, N-(5-Chloro-2-methoxyphenyl)-2-[10-(2-morpholin-4-yl-2-oxoethylamino)-3,4-dihydro-1H-benzo[b]-1,6-naphthyridin-2-yl]acetamide] the value was 100 to 1000 nM; for `COc1ccc(Cl)cc1NC(=O)CN1CCc2nc3ccccc3c(N)c2C1` [Compound 2, 2-(10-Amino-3,4-dihydro-1H-benzo[b]-1,6-naphthyridin-2-yl)-N-(5-chloro-2-methoxyphenyl)acetamide], more than 1000 nM.

For the molecule `COc1ccc(Cl)cc1NC(=O)COC(=O)N1CCc2nc3ccccc3c(NCCO)c2C1` [Compound 7, 10-(2-Hydroxyethylamino)-3,4-dihydro-1H-benzo[b]-1,6-naphthyridine-2-carboxylic acid (5-chloro-2-methoxy-phenylcarbamoyl)methyl ester], the IC50 is more than 1000 nM. As to `COc1ccc(Cl)cc1NC(=O)CN1CCc2nc3ccccc3c(NCC(=O)NC3CCCCC3)c2C1` [Compound 15, N-(5-Chloro-2-methoxyphenyl)-2-[10-(cyclohexyl-carbamoylmethylamino)-3,4-dihydro-1H-benzo[b]-1,6-naphthyridin-2-yl]acetamide], the IC50 was more than 1000 nM.

As for `COc1ccc(Cl)cc1NC(=O)CN1CCc2nc3ccccc3c(NCCO)c2C1` [Compound 4, N-(5-Chloro-2-methoxyphenyl)-2-[10-(2-hydroxy-ethylamino)-3,4-dihydro-1H-benzo[b]-1,6-naphthyridin-2-yl]acetamide], the IC50 fell in the range of 100 to 1000 nM. Same read-out and setting: for `COc1ccc(Cl)cc1NC(=O)CN1CCc2nc3ccccc3c(NCCN(C)C)c2C1` [Compound 5, N-(5-Chloro-2-methoxyphenyl)-2-[10-(2-dimethylamino-ethylamino)-3,4-dihydro-1H-benzo[b]-1,6-naphthyridin-2-yl]acetamide] the value was 100 to 1000 nM; for `COc1ccc(Cl)cc1NC(=O)CN1CCc2nc3ccccc3c(Nc3ccccn3)c2C1` [Compound 23, N-(5-Chloro-2-methoxyphenyl)-2-[10-(pyridin-2-ylamino)-3,4-dihydro-1H-benzo[b]-1,6-naphthyridin-2-yl]acetamide], more than 1000 nM.

Staying with this assay, now noted: at 3E−5M; LPC 75 μM.
With `Nc1c2c(nc3ccccc13)CCN(CC(=O)Nc1cc(Cl)ccc1Cl)C2` [Compound 3, 2-(10-Amino-3,4-dihydro-1H-benzo[b]-1,6-naphthyridin-2-yl)-N-(2,5-dichlorophenyl)acetamide], the “% (ctrl 3E−5M)” value was determined as 79%. Same read-out and setting: the same measure for `COc1ccc(Cl)cc1NC(=O)COC(=O)N1CCc2nc3ccccc3c(NCCN(C)C)c2C1` [Compound 6, 10-(2-Dimethylaminoethylamino)-3,4-dihydro-1H-benzo[b]-1,6-naphthyridine-2-carboxylic acid (5-chloro-2-methoxyphenylcarbamoyl)methyl ester]: −9%.

The record behind these values is patent US9029387B2, “Benzonaphthyridinamines as autotaxin inhibitors” (Merck Patent GmbH, priority 2010, dated 2015).
